ChEMBL document CHEMBL1137038, “7-Substituted 2-phenyl-benzofurans as ER beta selective ligands” (Bioorg Med Chem Lett, 2004)

Molecular target: T1, Estrogen receptor (Homo sapiens, UniProt P03372)
T1 sequence (P03372 whole entry): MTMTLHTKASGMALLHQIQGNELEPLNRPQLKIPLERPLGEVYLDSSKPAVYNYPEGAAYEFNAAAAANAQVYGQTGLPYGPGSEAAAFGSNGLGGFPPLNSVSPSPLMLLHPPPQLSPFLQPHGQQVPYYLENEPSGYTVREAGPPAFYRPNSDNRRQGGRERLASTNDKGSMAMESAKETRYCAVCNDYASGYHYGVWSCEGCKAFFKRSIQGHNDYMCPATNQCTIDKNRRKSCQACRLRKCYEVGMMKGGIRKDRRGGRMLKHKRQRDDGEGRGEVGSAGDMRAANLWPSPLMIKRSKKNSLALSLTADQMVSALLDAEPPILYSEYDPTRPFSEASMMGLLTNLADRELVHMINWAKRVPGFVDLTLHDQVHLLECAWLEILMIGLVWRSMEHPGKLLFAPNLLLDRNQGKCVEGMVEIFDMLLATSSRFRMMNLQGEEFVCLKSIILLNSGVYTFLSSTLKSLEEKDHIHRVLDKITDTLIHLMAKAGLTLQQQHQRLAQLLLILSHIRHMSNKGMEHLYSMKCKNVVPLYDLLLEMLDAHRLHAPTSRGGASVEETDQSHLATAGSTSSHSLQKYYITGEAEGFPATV
Description: Binding affinity for human Estrogen receptor alpha

IC50 [nM] | Structure (SMILES)
335 | COc1cc(O)c(Br)c2cc(-c3ccc(O)c(F)c3)oc12
990 | COc1cc(O)cc2cc(-c3ccc(O)c(F)c3)oc12
